US20250019385A1, “SPIROCYCLIC ANNULATED 2-AMINO-3-CYANO THIOPHENES AND DERIVATIVES FOR THE TREATMENT OF CANCER” (Boehringer Ingelheim International GmbH, priority 2023, published 2025)

system: MKN1 cells; test: MKN1 CTG proliferation assay (120 h) (gastric cancer, wt amplified); assay type: cell-based; conditions: Homo sapiens, MKN-1
How it was run: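 Cells were seeded at 200 per well in RPMI-1640 with 10% FCS, grown overnight, then exposed to logarithmic compound dilutions in duplicate for 120 h. Viability was read by CellTiter-Glo luminescence as percent of DMSO controls, with untreated T0 cells measured at dosing. IC50 came from four-parameter non-linear regression.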

SMILES | IC50 [nM]
C[C@H](Oc1nc(-c2onc3c2CCC[C@@]32CCCc3sc(N)c(C#N)c32)nc2c1n(C)c(=O)n2[C@@H]1CCOC1)[C@@H]1CC[C@H](C)N1C [I-26] | 24
CO[C@H]1CCN(C)[C@@H]1[C@H](C)Oc1nc(-c2onc3c2CCC[C@@]32CCCc3sc(N)c(C#N)c32)nc2c1n(C)c(=O)n2[C@@H]1CCCOC1 [I-6] | 90
C[C@H](Oc1nc(-c2noc3c2CCC[C@@]32CCCc3sc(N)c(C#N)c32)nc2c1COC[C@]21CCOC1)[C@@H]1CCCN1C [II-8] | 3
CO[C@@H]1C[C@@H]([C@H](C)Oc2nc(-c3onc4c3CCC[C@@]43CCCc4sc(N)c(C#N)c43)nc3c2n(C)c(=O)n3[C@@]23COC[C@@H]2C3)N(C)C1 [I-46] | 9
C[C@H](Oc1nc(-c2noc3c2CCC[C@@]32CCCc3sc(N)c(C#N)c32)nc2c1CNC[C@]21CCOC1)[C@@H]1CCCN1C [II-15] | 3
C[C@H](Oc1nc(-c2onc3c2CCC[C@@]32CCCc3sc(N)c(C#N)c32)nc2c1n(C)c(=O)n2[C@H]1CCC[C@@H]1O)[C@@H]1CCCN1C [I-19] | 1040
CO[C@H]1CCN(C)[C@@H]1[C@H](C)Oc1nc(-c2noc3c2CCC[C@@]32CCCc3sc(N)c(C#N)c32)nc2c1n(C)c(=O)n2[C@@H]1CCOC1 [II-1] | 6
C[C@H](Oc1nc(-c2onc3c2CCC[C@@]32CCCc3sc(N)c(C#N)c32)nc2c1n(C)c(=O)n2[C@H]1CCOC1)[C@@H]1CCCN1C [I-9] | 135
C[C@H](Oc1nc(-c2onc3c2CCC[C@@]32CCCc3sc(N)c(C#N)c32)nc2c1[nH]c(=O)n2[C@@H]1CCCOC1)[C@@H]1CCCN1C [I-13] | 11
CO[C@@H]1C[C@@H]([C@H](C)Oc2nc(-c3noc4c3CCC[C@@]43CCCc4sc(N)c(C#N)c43)nc3c2n(C)c(=O)n3[C@@]23COC[C@@H]2C3)N(C)C1 [II-6] | 12

system: Ba/F3 cells KRAS G12C; test: Ba/F3 proliferation assay (KRAS G12C); assay type: cell-based; conditions: Mus musculus, BaF3, 72 h, AlamarBlue viability
How it was run: (§1)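 Ba/F3 cells retrovirally transduced with KRAS G12 mutant, puromycin-selected, grown IL-3-independent; seeded in RPMI-1640 + 10% FCS without IL-3. Logarithmic compound dose series in duplicate, 72 h at 37° C., AlamarBlue fluorescence as % of DMSO control; IC50 from four-parameter non-linear regression.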

SMILES | IC50 [nM]
C[C@H](Oc1nc(-c2onc3c2CCC[C@@]32CCCc3sc(N)c(C#N)c32)nc2c1n(C)c(=O)n2[C@@H]1CCOC1)[C@@H]1CC[C@H](C)N1C [I-26] | 3
CO[C@H]1CCN(C)[C@@H]1[C@H](C)Oc1nc(-c2onc3c2CCC[C@@]32CCCc3sc(N)c(C#N)c32)nc2c1n(C)c(=O)n2[C@@H]1CCCOC1 [I-6] | 4
C[C@H](Oc1nc(-c2noc3c2CCC[C@@]32CCCc3sc(N)c(C#N)c32)nc2c1COC[C@]21CCOC1)[C@@H]1CCCN1C [II-8] | 2
CO[C@@H]1C[C@@H]([C@H](C)Oc2nc(-c3onc4c3CCC[C@@]43CCCc4sc(N)c(C#N)c43)nc3c2n(C)c(=O)n3[C@@]23COC[C@@H]2C3)N(C)C1 [I-46] | 2
C[C@H](Oc1nc(-c2noc3c2CCC[C@@]32CCCc3sc(N)c(C#N)c32)nc2c1CNC[C@]21CCOC1)[C@@H]1CCCN1C [II-15] | 1
C[C@H](Oc1nc(-c2onc3c2CCC[C@@]32CCCc3sc(N)c(C#N)c32)nc2c1n(C)c(=O)n2[C@H]1CCC[C@@H]1O)[C@@H]1CCCN1C [I-19] | 406
CO[C@H]1CCN(C)[C@@H]1[C@H](C)Oc1nc(-c2noc3c2CCC[C@@]32CCCc3sc(N)c(C#N)c32)nc2c1n(C)c(=O)n2[C@@H]1CCOC1 [II-1] | 4
C[C@H](Oc1nc(-c2onc3c2CCC[C@@]32CCCc3sc(N)c(C#N)c32)nc2c1n(C)c(=O)n2[C@H]1CCOC1)[C@@H]1CCCN1C [I-9] | 38
C[C@H](Oc1nc(-c2onc3c2CCC[C@@]32CCCc3sc(N)c(C#N)c32)nc2c1[nH]c(=O)n2[C@@H]1CCCOC1)[C@@H]1CCCN1C [I-13] | 38
CO[C@@H]1C[C@@H]([C@H](C)Oc2nc(-c3noc4c3CCC[C@@]43CCCc4sc(N)c(C#N)c43)nc3c2n(C)c(=O)n3[C@@]23COC[C@@H]2C3)N(C)C1 [II-6] | 2

system: not listed separately; test: Metabolic (microsomal) stability assay, human liver microsomes (HLM); assay type: in vitro ADME; conditions: 1 μM test compound, predicted clearance as percent of liver blood flow

SMILES | HLM QH [%]
C[C@H](Oc1nc(-c2onc3c2CCC[C@@]32CCCc3sc(N)c(C#N)c32)nc2c1n(C)c(=O)n2[C@@H]1CCOC1)[C@@H]1CC[C@H](C)N1C [I-26] | 42
CO[C@H]1CCN(C)[C@@H]1[C@H](C)Oc1nc(-c2onc3c2CCC[C@@]32CCCc3sc(N)c(C#N)c32)nc2c1n(C)c(=O)n2[C@@H]1CCCOC1 [I-6] | 73
C[C@H](Oc1nc(-c2noc3c2CCC[C@@]32CCCc3sc(N)c(C#N)c32)nc2c1COC[C@]21CCOC1)[C@@H]1CCCN1C [II-8] | 46
CO[C@@H]1C[C@@H]([C@H](C)Oc2nc(-c3onc4c3CCC[C@@]43CCCc4sc(N)c(C#N)c43)nc3c2n(C)c(=O)n3[C@@]23COC[C@@H]2C3)N(C)C1 [I-46] | 34
C[C@H](Oc1nc(-c2noc3c2CCC[C@@]32CCCc3sc(N)c(C#N)c32)nc2c1CNC[C@]21CCOC1)[C@@H]1CCCN1C [II-15] | 63
C[C@H](Oc1nc(-c2onc3c2CCC[C@@]32CCCc3sc(N)c(C#N)c32)nc2c1n(C)c(=O)n2[C@H]1CCC[C@@H]1O)[C@@H]1CCCN1C [I-19] | <24
CO[C@H]1CCN(C)[C@@H]1[C@H](C)Oc1nc(-c2noc3c2CCC[C@@]32CCCc3sc(N)c(C#N)c32)nc2c1n(C)c(=O)n2[C@@H]1CCOC1 [II-1] | 80
C[C@H](Oc1nc(-c2onc3c2CCC[C@@]32CCCc3sc(N)c(C#N)c32)nc2c1n(C)c(=O)n2[C@H]1CCOC1)[C@@H]1CCCN1C [I-9] | <24
C[C@H](Oc1nc(-c2onc3c2CCC[C@@]32CCCc3sc(N)c(C#N)c32)nc2c1[nH]c(=O)n2[C@@H]1CCCOC1)[C@@H]1CCCN1C [I-13] | <24
CO[C@@H]1C[C@@H]([C@H](C)Oc2nc(-c3noc4c3CCC[C@@]43CCCc4sc(N)c(C#N)c43)nc3c2n(C)c(=O)n3[C@@]23COC[C@@H]2C3)N(C)C1 [II-6] | 52

system: AsPC-1 cells; test: AsPC-1 CTG proliferation assay (120 h) (pancreatic cancer, G12D); assay type: cell-based; conditions: Homo sapiens, ASPC1
How it was run: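 AsPC-1 cells plated overnight, then exposed to logarithmic compound dose series (duplicates) for 120 h at 37° C. Viability by CellTiter-Glo luminescence as percent of DMSO controls, with a T0 reading at compound addition; IC50 from four-parameter non-linear regression.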

SMILES | IC50 [nM]
C[C@H](Oc1nc(-c2onc3c2CCC[C@@]32CCCc3sc(N)c(C#N)c32)nc2c1n(C)c(=O)n2[C@@H]1CCOC1)[C@@H]1CC[C@H](C)N1C [I-26] | 854
CO[C@H]1CCN(C)[C@@H]1[C@H](C)Oc1nc(-c2onc3c2CCC[C@@]32CCCc3sc(N)c(C#N)c32)nc2c1n(C)c(=O)n2[C@@H]1CCCOC1 [I-6] | 607
C[C@H](Oc1nc(-c2noc3c2CCC[C@@]32CCCc3sc(N)c(C#N)c32)nc2c1COC[C@]21CCOC1)[C@@H]1CCCN1C [II-8] | 62
CO[C@@H]1C[C@@H]([C@H](C)Oc2nc(-c3onc4c3CCC[C@@]43CCCc4sc(N)c(C#N)c43)nc3c2n(C)c(=O)n3[C@@]23COC[C@@H]2C3)N(C)C1 [I-46] | 292
C[C@H](Oc1nc(-c2noc3c2CCC[C@@]32CCCc3sc(N)c(C#N)c32)nc2c1CNC[C@]21CCOC1)[C@@H]1CCCN1C [II-15] | 179
C[C@H](Oc1nc(-c2onc3c2CCC[C@@]32CCCc3sc(N)c(C#N)c32)nc2c1n(C)c(=O)n2[C@H]1CCC[C@@H]1O)[C@@H]1CCCN1C [I-19] | 2990
CO[C@H]1CCN(C)[C@@H]1[C@H](C)Oc1nc(-c2noc3c2CCC[C@@]32CCCc3sc(N)c(C#N)c32)nc2c1n(C)c(=O)n2[C@@H]1CCOC1 [II-1] | 323
C[C@H](Oc1nc(-c2onc3c2CCC[C@@]32CCCc3sc(N)c(C#N)c32)nc2c1n(C)c(=O)n2[C@H]1CCOC1)[C@@H]1CCCN1C [I-9] | 751
C[C@H](Oc1nc(-c2onc3c2CCC[C@@]32CCCc3sc(N)c(C#N)c32)nc2c1[nH]c(=O)n2[C@@H]1CCCOC1)[C@@H]1CCCN1C [I-13] | 2370
CO[C@@H]1C[C@@H]([C@H](C)Oc2nc(-c3noc4c3CCC[C@@]43CCCc4sc(N)c(C#N)c43)nc3c2n(C)c(=O)n3[C@@]23COC[C@@H]2C3)N(C)C1 [II-6] | 265

system: Ba/F3 cells KRAS G12V; test: Ba/F3 proliferation assay (KRAS G12V); assay type: cell-based; conditions: Mus musculus, BaF3, 72 h, AlamarBlue viability
How it was run: as §1

SMILES | IC50 [nM]
C[C@H](Oc1nc(-c2onc3c2CCC[C@@]32CCCc3sc(N)c(C#N)c32)nc2c1n(C)c(=O)n2[C@@H]1CCOC1)[C@@H]1CC[C@H](C)N1C [I-26] | 2
CO[C@H]1CCN(C)[C@@H]1[C@H](C)Oc1nc(-c2onc3c2CCC[C@@]32CCCc3sc(N)c(C#N)c32)nc2c1n(C)c(=O)n2[C@@H]1CCCOC1 [I-6] | 2
C[C@H](Oc1nc(-c2noc3c2CCC[C@@]32CCCc3sc(N)c(C#N)c32)nc2c1COC[C@]21CCOC1)[C@@H]1CCCN1C [II-8] | 1
CO[C@@H]1C[C@@H]([C@H](C)Oc2nc(-c3onc4c3CCC[C@@]43CCCc4sc(N)c(C#N)c43)nc3c2n(C)c(=O)n3[C@@]23COC[C@@H]2C3)N(C)C1 [I-46] | 1
C[C@H](Oc1nc(-c2noc3c2CCC[C@@]32CCCc3sc(N)c(C#N)c32)nc2c1CNC[C@]21CCOC1)[C@@H]1CCCN1C [II-15] | 2
C[C@H](Oc1nc(-c2onc3c2CCC[C@@]32CCCc3sc(N)c(C#N)c32)nc2c1n(C)c(=O)n2[C@H]1CCC[C@@H]1O)[C@@H]1CCCN1C [I-19] | 243
CO[C@H]1CCN(C)[C@@H]1[C@H](C)Oc1nc(-c2noc3c2CCC[C@@]32CCCc3sc(N)c(C#N)c32)nc2c1n(C)c(=O)n2[C@@H]1CCOC1 [II-1] | 2
C[C@H](Oc1nc(-c2onc3c2CCC[C@@]32CCCc3sc(N)c(C#N)c32)nc2c1n(C)c(=O)n2[C@H]1CCOC1)[C@@H]1CCCN1C [I-9] | 20
C[C@H](Oc1nc(-c2onc3c2CCC[C@@]32CCCc3sc(N)c(C#N)c32)nc2c1[nH]c(=O)n2[C@@H]1CCCOC1)[C@@H]1CCCN1C [I-13] | 16
CO[C@@H]1C[C@@H]([C@H](C)Oc2nc(-c3noc4c3CCC[C@@]43CCCc4sc(N)c(C#N)c43)nc3c2n(C)c(=O)n3[C@@]23COC[C@@H]2C3)N(C)C1 [II-6] | 1
